In brackets after ≈: the same amount, converted by molar mass. Like-named read-outs stand apart in the source and are kept apart here. Non-standard residues stand in square brackets, D forms with d. Residues, ends and D or L forms follow the SMILES beside them.
How the values were obtained:
Shigella = experiment: microbe, parasite or virus in culture; assay type: cell-based
Experimental: (§1) The experimental strains are 37 standard strains preserved in lab and clinical isolated bacteria, including drug-resistant bacteria and quality-control bacteria selecting Staphylococcus aureus ATCC29213, Enterococcus faecalis ATCC29212, Escherichia coli ATCC25922, Pseudomonas aeruginosa ATCC27853 and klebsiella pneumoniae ATCC700603.
(§2) (1) Sensitivity test is conducted with two-fold agar dilution method and Denlay multipoint inoculator. Test bacteria are cultured with nutrient broth and brain heart infusion.
(§3) (2) The drug is double diluted into different concentration with MH broth after dissolved and then placed in the plate respectively.
(§4) (3) After dissolved, MH agar culture medium are injected into the plate with drug quantitatively and mixed to make the final concentration of drug are 0.03, 0.06, 0.125, . . . , 128 μg/ml respectively.
(§5) (4) After solidification of the culture medium in the plate, test bacteria (10^4CFU/point) are inoculated by multipoint inoculator and cultured for 18 hours at constant 35° C. Then observe the results.

[1] = system: Staphylococcus epidermidis; experiment: microbe, parasite or virus in culture; assay type: cell-based
Experimental: as §1, §2, §3, §4, §5

Shigella sonnei = experiment: microbe, parasite or virus in culture; assay type: cell-based; conditions: Shigella sonnei strains 51592
Experimental: as §1, §2, §3, §4, §5

Shigella flexneri = experiment: microbe, parasite or virus in culture; assay type: cell-based
Experimental: as §1, §2, §3, §4, §5

Staphylococcus aureus = experiment: microbe, parasite or virus in culture; assay type: cell-based
Experimental: as §1, §2, §3, §4, §5

klebsiella pneumoniae = experiment: microbe, parasite or virus in culture; assay type: cell-based
Experimental: as §1, §2, §3, §4, §5

Pseudomonas aeruginosa = experiment: microbe, parasite or virus in culture; assay type: cell-based
Experimental: as §1, §2, §3, §4, §5

Typhoid bacillus H901 = experiment: microbe, parasite or virus in culture; assay type: cell-based
Experimental: as §1, §2, §3, §4, §5

Escherichia coli = experiment: microbe, parasite or virus in culture; assay type: cell-based
Experimental: as §1, §2, §3, §4, §5

[2] = RP-HPLC temperature profiling: hydrophobicity and self-association; assay type: physicochemical
Experimental: Peptides are analyzed on an Agilent 1200 series liquid chromatograph (Little Falls, Del.). Runs are performed on a Zorbax 300 SB-C8 column (150×4.6 mm I.D.; 5 μm particle size, 300 Å pore size) from Agilent Technologies using linear AB gradient (1% acetonitrile/min) and a flow rate of 1 ml/min, where solvent A is 0.05% aqueous TFA, pH 2 and solvent B is 0.05% TFA in acetonitrile.
We further use temperature profiling during RP-HPLC to determine the self-association ability of various analogs of PL-13 (SEQ ID NO: 1) which would occur through interaction of the non-polar faces of these amphipathic peptides α-helices. We use 50% TFE aqueous acetonitrile and hydrophobic conditions in the reversed-phase column (hydrophobic stationary phase and the hydrophobic organic solvent in the mobile phase) since the hydrophobic environment of a reversed-phase column also could induce α-helical structure. Since its introduction, the technique of RP-HPLC temperature profiling has been applied on several types of molecules, including cyclic β-sheet peptides, monomeric α-helices and α-helices that dimerize, as well as α-helices that dimerize to form coiled-coils. Although peptides are eluted from a reversed-phase column mainly by an adsorption/desorption mechanism, even a peptide strongly bound to a hydrophobic stationary phase will partition between the matrix and the mobile phase when the acetonitrile content becomes high enough during gradient elution. In summary, the mechanism is based on four assumptions: (i) at low temperature, just as an amphipathic α-helical peptide is able to dimerize in aqueous solution (through its hydrophobic, non-polar face), it will dimerize in solution during partitioning in reversed-phase chromatography; (ii) at higher temperatures, the monomer-dimer equilibrium favors the monomer as the dimer is disrupted; (iii) at sufficiently high temperatures, only monomer is present in solution; and (iv) peptide is always bound in its monomeric helical form to the hydrophobic stationary phase, i.e., the dimer can only be present in solution and disruption of the dimer is required for rebinding to the RP-HPLC matrix.
([θ]222=−3,950). Since peptide C is a monomeric random coil peptide in both aqueous and hydrophobic media, its retention behavior over the temperature range 5-80° C. represents only general temperature effects on peptide retention behavior, i.e., a linear decrease in peptide retention time with increasing temperature due to greater solute diffusivity and enhanced mass transfer between the stationary and mobile phases at higher temperatures. Thus, after normalization to the retention times of peptide C, the retention behavior of the peptides only represents peptide self-association ability. Note that the higher the PA value, the greater the self-association ability. The order of peptide self-association ability of the three pairs of peptide enantiomers is identical to the order of peptide hydrophobicity. Apart from the decrease in retention time due to the general temperature effects noted above, destruction of the α-helix will also occur with increasing temperature, resulting in reduced retention times as the peptides become increasingly random coils.
The retention time data for the peptides is shown in Table 6 which records retention times at 5° C., the maximal retention times and retention times at 80° C. during the temperature profiling. Temperatures of 5-80° C. are the lower and upper temperature limits of temperature profiling in RP-HPLC, representing polymerization of the peptides at 5° C. and the monomerization of peptides at 80° C. due to denaturation of peptides by high temperature and dissociation of the polymers. The maximal retention times represent the threshold points at which peptides totally transform from polymeric to monomeric form. […]

[3] = 08-17 (MSSE) Meticillin susceptible staphylococcus epidermidis
[4] = 08-18 (MRSE) Methicillin-resistant staphylococcus epidermidis
[5] = 08-49(MSSA) Meticillin susceptible staphylococcus aureus
[6] = 08-52(MRSA) Methicillin-resistant staphylococcus aureus
[7] = Staphylococcus aureus ATCC25923
[8] = Staphylococcus aureus ATCC29213
[9] = strain 15 (listed under Staphylococcus aureus)

For `CC[C@@H](C)[C@@H](NC(=O)[C@@H](CCCCN)NC(=O)[C@@H](CO)NC(=O)[C@@H](Cc1ccccc1)NC(=O)[C@@H](CC(C)C)NC(=O)[C@@H](CCCCN)NC(=O)[C@@H](CCC(=O)O)NC(=O)[C@@H](CC(C)C)NC(=O)[C@@H](CCCNC(=N)N)NC(=O)[C@@H](CCCCN)NC(=O)[C@@H](Cc1ccccc1)NC(C)=O)C(=O)N[C@H](Cc1c[nH]c2ccccc12)C(=O)N[C@H](CC(N)=O)C(=O)N[C@H](Cc1c[nH]c2ccccc12)C(=O)N[C@H](CCCCN)C(N)=O` [PL-17] (Ac-[dF][dK][dR][dL][dE][dK][dL][dF][dS][dK][dI][dW][dN][dW][dK]-NH2), the MIC (Shigella) was 0.3 µM (≈ 0.619 µg/mL), the MIC [1, 3] was 1.0 µM (≈ 2.06 µg/mL) and the MIC [1, 4] was 1.0 µM (≈ 2.06 µg/mL). For the same molecule, the MIC ([1]; (MRSE) Methicillin-resistant Staphylococcus epidermidis ATCC12228) was 1.0 µM (≈ 2.06 µg/mL), the MIC (Shigella sonnei) was 0.3 µM (≈ 0.619 µg/mL) and the MIC (Shigella flexneri) was 0.3 µM (≈ 0.619 µg/mL). It also gave an MIC (Staphylococcus aureus; [5]) of 0.7 µM (≈ 1.45 µg/mL), an MIC (Staphylococcus aureus; [6]) of 5.3 µM (≈ 10.9 µg/mL) and an MIC (Staphylococcus aureus; [7]) of 0.3 µM (≈ 0.619 µg/mL). For the same molecule, the MIC (Staphylococcus aureus; [8]) was 0.3 µM (≈ 0.619 µg/mL), the MIC (Staphylococcus aureus; [9]) was 0.3 µM (≈ 0.619 µg/mL) and the MIC (klebsiella pneumoniae; 08-2 (ESBLs) (listed under klebsiella pneumoniae)) was 0.3 µM (≈ 0.619 µg/mL). For the same molecule, the MIC (klebsiella pneumoniae; klebsiella pneumoniae ATCC700603) was 2.7 µM (≈ 5.57 µg/mL), the MIC (klebsiella pneumoniae; strain 7 (listed under klebsiella pneumoniae)) was 0.3 µM (≈ 0.619 µg/mL) and the MIC (Pseudomonas aeruginosa; Pseudomonas aeruginosa TCC27853) was 1.3 µM (≈ 2.68 µg/mL). The MIC (Pseudomonas aeruginosa; strain 17 (listed under Pseudomonas aeruginosa)) was 2.7 µM (≈ 5.57 µg/mL), the MIC (Typhoid bacillus H901) was 0.7 µM (≈ 1.45 µg/mL) and the MIC (Escherichia coli; 272(TEM-88)) was 0.3 µM (≈ 0.619 µg/mL). The MIC (Escherichia coli; 274 (TEM-15)) was 0.3 µM (≈ 0.619 µg/mL) and the MIC (Escherichia coli; 276 (TEM-52)) was 0.7 µM (≈ 1.45 µg/mL).
For Ac-FKKLKKLFSKLWNWK-NH2 [PL-13], the “tR(min) 5° C.” value ([2]; RP-HPLC temperature profiling, 5° C.) was 35.75 min, the “tR(min) 80° C.” value ([2]; RP-HPLC temperature profiling, 80° C.) was 33.37 min and the “PA (min), association parameter” value ([2]; maximal normalized retention time difference within 5-80° C., self-association ability) was 0.56 min. The “tR(min) Max” value ([2]; maximal retention time during temperature profiling 5-80° C.) was 35.75 min, the “ΔtR(X-Peptide C)(min) 5° C.” value ([2]; retention time difference to control peptide C at 5° C., relative hydrophobicity) was 13.19 min and the “ΔtR(X-Peptide C)(min) 80° C.” value ([2]; retention time difference to control peptide C at 80° C., relative hydrophobicity) was 13.45 min. For the same molecule, the “Hydrophobicity tR5” value ([2]; retention time in RP-HPLC at pH 2, 5° C.) was 35.75 min, the “Hydrophobicity tR80” value ([2]; retention time in RP-HPLC at pH 2, 80° C.) was 33.37 min and the MIC (Shigella) was 0.7 µM. For the same molecule, the MIC (Shigella sonnei) was 0.7 µM, the MIC (Shigella flexneri) was 0.7 µM and the MIC (Staphylococcus aureus) was 0.7 µM. The MIC (Staphylococcus aureus; [5]) was 2.7 µM, the MIC (Staphylococcus aureus; [6]) was 2.7 µM and the MIC (Pseudomonas aeruginosa) was 1.3 µM. It also gave an MIC (Typhoid bacillus H901) of 1.3 µM and an MIC (Escherichia coli; 08-5 (ESBLs) Extended Spectyumβ-lactamase) of 0.7 µM.
In the case of `C[C@H]1COc2c(N3CCN(C)CC3)c(F)cc3c(=O)c(C(=O)O)cn1c23` [Levofloxacin, levofloxacin, reference compound], the MIC (Shigella) was < 0.02 µM, the MIC [1, 3] was 1.2 µM (≈ 0.434 µg/mL) and the MIC [1, 4] was 55.5 µM (≈ 20.1 µg/mL). It also gave an MIC ([1]; ATCC 12228 / MRSE, (MRSE) Methicillin-resistant Staphylococcus epidermidis ATCC12228) of 0.3 µM (≈ 0.108 µg/mL), an MIC (Shigella sonnei) of 0.1 µM (≈ 0.0361 µg/mL) and an MIC (Shigella flexneri) of 0.1 µM (≈ 0.0361 µg/mL). The MIC (Staphylococcus aureus; [5]) was 0.3 µM (≈ 0.108 µg/mL), the MIC (Staphylococcus aureus; [6]) was 76.9 µM (≈ 27.8 µg/mL) and the MIC (Staphylococcus aureus; [7]) was 0.3 µM (≈ 0.108 µg/mL). It also gave an MIC (Staphylococcus aureus; [8]) of 0.6 µM (≈ 0.217 µg/mL), an MIC (Staphylococcus aureus; [9]) of 0.3 µM (≈ 0.108 µg/mL) and an MIC (klebsiella pneumoniae; Klebsiella pneumoniae, 08-2 (ESBLs) (listed under klebsiella pneumoniae)) of 76.9 µM (≈ 27.8 µg/mL). The MIC (klebsiella pneumoniae; Klebsiella pneumoniae, ATCC700603, klebsiella pneumoniae ATCC700603) was 1.2 µM (≈ 0.434 µg/mL), the MIC (klebsiella pneumoniae; Klebsiella pneumoniae, strain 7 (listed under klebsiella pneumoniae)) was < 16 µM and the MIC (Pseudomonas aeruginosa; Pseudomonas aeruginosa, Pseudomonas aeruginosa TCC27853) was 1.2 µM (≈ 0.434 µg/mL). For the same molecule, the MIC (Pseudomonas aeruginosa; Pseudomonas aeruginosa, strain 17 (listed under Pseudomonas aeruginosa)) was 0.7 µM (≈ 0.253 µg/mL), the MIC (Typhoid bacillus H901) was < 0.02 µM and the MIC (Escherichia coli; Escherichia coli, 08-5 (ESBLs) Extended Spectyumβ-lactamase) was 76.9 µM (≈ 27.8 µg/mL). For the same molecule, the MIC (Escherichia coli; Escherichia coli, 272(TEM-88)) was < 0.7 µM, the MIC (Escherichia coli; Escherichia coli, 274 (TEM-15)) was 0.2 µM (≈ 0.0723 µg/mL) and the MIC (Escherichia coli; Escherichia coli, 276 (TEM-52)) was < 0.2 µM. For the same molecule, the MIC (Escherichia coli; Escherichia coli, ATCC25922, Escherichia coli ATCC 25922) was 0.14 µM (≈ 0.0506 µg/mL) and the MIC (Escherichia coli; Escherichia coli, strain 26 (listed under Escherichia coli)) was < 0.7 µM.

Reference: patent US9273095B2, “Antibiotic peptide and preparation method therefor and application therefor” (priority 2011, dated 2016)
